{"source": "paper PMC8786932", "about": "“Bicyclic azetidines target acute and chronic stages of Toxoplasma gondii by inhibiting parasite phenylalanyl t-RNA synthetase” (Nature Communications, 2022)", "key": {"T. gondii RH-FLuc parent": {"tested_on": "T. gondii RH-FLuc parent", "assay": "Luciferase growth assay, parental line of resistance selection", "type": "cell-based, Toxoplasma gondii", "settings": "for luciferase signal (raw): parent", "from_the_text": "[…]. […] […]."}, "recombinant HsPheRS": {"molecular_target": "T1, recombinant HsPheRS (Homo sapiens, UniProt Q9Y285)", "T1 sequence (Q9Y285 1-508)": "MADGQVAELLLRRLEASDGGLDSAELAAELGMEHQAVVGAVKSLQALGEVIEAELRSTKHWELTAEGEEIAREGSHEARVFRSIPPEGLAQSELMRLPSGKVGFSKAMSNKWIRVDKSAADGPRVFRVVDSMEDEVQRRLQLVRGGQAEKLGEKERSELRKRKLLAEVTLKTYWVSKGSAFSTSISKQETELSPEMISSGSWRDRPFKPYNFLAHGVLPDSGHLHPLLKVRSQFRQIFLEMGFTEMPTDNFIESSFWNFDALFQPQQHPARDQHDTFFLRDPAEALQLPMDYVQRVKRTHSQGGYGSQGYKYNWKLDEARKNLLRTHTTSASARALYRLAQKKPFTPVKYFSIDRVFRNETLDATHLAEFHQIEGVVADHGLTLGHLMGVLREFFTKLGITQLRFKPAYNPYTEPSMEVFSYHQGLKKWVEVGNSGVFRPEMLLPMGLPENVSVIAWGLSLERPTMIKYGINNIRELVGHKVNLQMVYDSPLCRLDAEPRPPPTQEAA", "T1 sequence (Q9NSD9 1-589 partner)": "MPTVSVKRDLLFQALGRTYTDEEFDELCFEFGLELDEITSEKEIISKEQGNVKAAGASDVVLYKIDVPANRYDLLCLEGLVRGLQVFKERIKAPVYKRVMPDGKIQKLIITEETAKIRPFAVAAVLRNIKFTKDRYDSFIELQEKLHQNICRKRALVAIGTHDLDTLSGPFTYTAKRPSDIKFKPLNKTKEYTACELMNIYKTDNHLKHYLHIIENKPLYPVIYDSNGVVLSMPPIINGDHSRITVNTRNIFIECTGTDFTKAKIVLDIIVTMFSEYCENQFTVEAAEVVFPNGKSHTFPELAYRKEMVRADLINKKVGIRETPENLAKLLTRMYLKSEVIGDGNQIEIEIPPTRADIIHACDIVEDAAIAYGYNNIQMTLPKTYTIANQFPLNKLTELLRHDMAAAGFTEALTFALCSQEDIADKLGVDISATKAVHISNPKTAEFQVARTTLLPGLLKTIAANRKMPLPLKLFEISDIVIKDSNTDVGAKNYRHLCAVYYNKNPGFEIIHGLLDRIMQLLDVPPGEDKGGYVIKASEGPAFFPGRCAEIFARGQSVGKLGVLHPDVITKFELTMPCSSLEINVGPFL", "assay": "Malachite green aminoacylation enzyme assay, HsPheRS", "settings": "for Hu PheRS enzyme assay raw signal: replicates"}, "[1]": {"tested_on": "HFF (primary human foreskin fibroblast)", "assay": "in vitro", "type": "cell-based", "settings": "EC50 host cell/EC50 T. gondii", "description": "For the toxicity screen, compounds were tested in 96-well plates using all the wells as no edge affect was observed. Compounds were diluted to 40 μM (2x concentration in 10% DMEM, 0.4% DMSO) before step-wise, 3-fold dilution in 10% DMEM to create 10-dose series (20 μM to 0.001 μM). Host cells were plated in black, μ-Clear 96-well plates (Greiner Bio-One). We compared several lineages including HepG2 (human hepatocellular carcinoma (ATCC-HB-8065)), THP-1 (human monocytic tumor line), SH-SY5Y (human neuroblastoma (ATCC CRL-2266)), A549 (human lung carcinoma (ATCC CRM-CCL-185)) and Caco-2 (human intestinal adenocarcinoma (ATCC HTB-37)) and HFF (primary human foreskin fibroblast) obtained from the laboratory of John Boothroyd at Stanford University. Cells were maintained in culture media according to the formulations recommended by ATCC. Cells were plated at a density (ranging from of 5 × 10^3 to 2 × 10^4 cells/well (100 μL vol)) resulting in sub-confluent monolayers to allow expansion during the 2 day growth assay. THP-1 cells were treated with 10 ng/ml phorbol 12-myristate 13-acetate (PMA) for 24 h to differentiate into macrophages before compound addition. For all other cells, compounds were added at 6 h post seeding to host cells containing plates (200 μL final volume, 0.2% DMSO) and incubated in culture medium at 37 °C supplemented with 5% CO2. At 44 h post compound addition (50 h total growth time), culture media was aspirated and replaced with Live Imaging solution (ThermoFisher) supplemented with 10 μg/mL Hoeschst 33342 (Sigma) for 20 min at 37 °C. […] Alternatively, plates fixed with 4% formaldehyde for 10 min and stained with 10 μg/mL Hoeschst 33342 (Sigma) for 20 min and imaged using a Cytation 3 multi-mode imager (DAPI, 10x objective, 4 images/well) and nuclei quantified using the Gen5 imager software (v3.08). Assays were repeated with two technical replicates within each of two independent biological replicates.\nAll statistical analyses were conducted using Prism 9 (GraphPad Software, Inc.). Dose–response inhibition curves for parasite and host cell toxicity screens (EC50 values) were generated using (Log(inhibitor) vs. normalized response—Variable slope) function. […] For multiple comparisons, two-way ANOVA analysis function using either Sidák’s multiple comparisons test or Dunnett’s multiple comparisons test was applied as indicated."}, "C. parvum": {"tested_on": "C. parvum", "settings": "Fig 2A Tg_Pf_Cp EC50s; previously reported values, reference not visible in the shown part; cited from earlier work"}}, "note": "Where “and” joins values, the source holds several entries; their conditions need not be identical. Equal entries are not always repeated."}
{"molecule": "COc1ccc(NC(=O)N2CCCCN3[C@H](CN(C)C)[C@H](c4ccc(C#Cc5ccccc5)cc4)[C@@H]3C2)cc1", "note": "[BRD7929]", "values": [{"measurement": "EC50", "setting": "T. gondii RH-FLuc parent; Toxoplasma gondii, read-out: EC50, parent RH-FLuc", "value": 14, "unit": "nM"}, {"measurement": "luciferase signal (raw)", "setting": "T. gondii RH-FLuc parent; concentration 2.222222", "value": "5 and 6 and 7 and 8"}, {"measurement": "luciferase signal (raw)", "setting": "T. gondii RH-FLuc parent; concentration 6.666667", "value": "5 and 4 and 6"}, {"measurement": "luciferase signal (raw, Fig 3B source data)", "setting": "T. gondii RH-FLuc parent; {}", "value": 5}, {"measurement": "IC50", "setting": "recombinant HsPheRS", "value": 22300, "unit": "nM"}, {"measurement": "Hu PheRS enzyme assay raw signal", "setting": "recombinant HsPheRS; BRD7929 0.000001 μM", "value": "0.7213 and 0.8235 and 0.7680"}, {"measurement": "Hu PheRS enzyme assay raw signal", "setting": "recombinant HsPheRS; BRD7929 0.000010 μM", "value": "0.6210 and 0.7246 and 0.7585"}, {"measurement": "Hu PheRS enzyme assay raw signal", "setting": "recombinant HsPheRS; BRD7929 0.000100 μM", "value": "0.6366 and 0.8166 and 0.8094"}, {"measurement": "Hu PheRS enzyme assay raw signal", "setting": "recombinant HsPheRS; BRD7929 0.001000 μM", "value": "0.7178 and 0.7568 and 0.6293"}, {"measurement": "Hu PheRS enzyme assay raw signal", "setting": "recombinant HsPheRS; BRD7929 0.010000 μM", "value": "0.4951 and 0.5827 and 0.6166"}, {"measurement": "Hu PheRS enzyme assay raw signal", "setting": "recombinant HsPheRS; BRD7929 0.100000 μM", "value": "0.5035 and 0.5467 and 0.5776"}, {"measurement": "Hu PheRS enzyme assay raw signal", "setting": "recombinant HsPheRS; BRD7929 1.000000 μM", "value": "0.4827 and 0.4553 and 0.5046"}, {"measurement": "Hu PheRS enzyme assay raw signal", "setting": "recombinant HsPheRS; BRD7929 10.000000 μM", "value": "0.4350 and 0.4477 and 0.4390"}, {"measurement": "Hu PheRS enzyme assay raw signal", "setting": "recombinant HsPheRS; BRD7929 100.000000 μM", "value": "0.4107 and 0.4228 and 0.4405"}]}
{"molecule": "COc1ccc(NC(=O)N2CCCCN3[C@H](CN(C)S(C)(=O)=O)[C@H](c4ccc(C#Cc5ccccc5)cc4)[C@@H]3C2)cc1", "note": "[BRD8494]", "values": [{"measurement": "HFF fold selectivity", "setting": "[1]", "value": 571.4, "unit": "fold"}]}
{"molecule": "COc1ccc(NC(=O)N2CCCCN3[C@H](CO)[C@H](c4ccc(C#Cc5ccccc5)cc4)[C@@H]3C2)cc1", "note": "[BRD3444]", "values": [{"measurement": "EC50", "setting": "C. parvum", "value": 15, "unit": "nM"}]}
